Experimental findings from patent publication US20250129074A1, “CHIMERIC COMPOUND FOR TARGETED DEGRADATION OF ANDROGEN RECEPTOR PROTEIN, PREPARATION METHOD THEREFOR, AND MEDICAL USE THEREOF” (Jiangsu Hengrui Pharmaceuticals Co., Ltd., priority 2021, published 2025) are described below.

Each structure is given as a SMILES string. Like-named read-outs stand apart in the source and are kept apart here.

In one experiment the test system is LNCaP cells. Kind of experiment: Inhibition of LNCaP proliferation (CellTiter-Glo). The format is cell-based. To be noted: Homo sapiens, 144 h, 0.1 nM R1881, six days; for Emax: read-out: Max (maximum proliferation inhibition rate). The procedure: The plate was incubated in a 37° C., 5% CO2 cell incubator for three days. […] A blank control cell well containing 0.5% DMSO and a cell-free vehicle control well were set up. The plate was incubated in a 37° C., 5% CO2 cell incubator for six days.
On the technique in general: ATP-based viability assays read luminescence as a measure of living cells.

In another experiment the target is T1, androgen receptor (AR) (Homo sapiens, UniProt P10275, T878A).
T1 construct: host or cells: LNCaP human prostate cancer cells
T1 sequence (P10275 1-920 T878A): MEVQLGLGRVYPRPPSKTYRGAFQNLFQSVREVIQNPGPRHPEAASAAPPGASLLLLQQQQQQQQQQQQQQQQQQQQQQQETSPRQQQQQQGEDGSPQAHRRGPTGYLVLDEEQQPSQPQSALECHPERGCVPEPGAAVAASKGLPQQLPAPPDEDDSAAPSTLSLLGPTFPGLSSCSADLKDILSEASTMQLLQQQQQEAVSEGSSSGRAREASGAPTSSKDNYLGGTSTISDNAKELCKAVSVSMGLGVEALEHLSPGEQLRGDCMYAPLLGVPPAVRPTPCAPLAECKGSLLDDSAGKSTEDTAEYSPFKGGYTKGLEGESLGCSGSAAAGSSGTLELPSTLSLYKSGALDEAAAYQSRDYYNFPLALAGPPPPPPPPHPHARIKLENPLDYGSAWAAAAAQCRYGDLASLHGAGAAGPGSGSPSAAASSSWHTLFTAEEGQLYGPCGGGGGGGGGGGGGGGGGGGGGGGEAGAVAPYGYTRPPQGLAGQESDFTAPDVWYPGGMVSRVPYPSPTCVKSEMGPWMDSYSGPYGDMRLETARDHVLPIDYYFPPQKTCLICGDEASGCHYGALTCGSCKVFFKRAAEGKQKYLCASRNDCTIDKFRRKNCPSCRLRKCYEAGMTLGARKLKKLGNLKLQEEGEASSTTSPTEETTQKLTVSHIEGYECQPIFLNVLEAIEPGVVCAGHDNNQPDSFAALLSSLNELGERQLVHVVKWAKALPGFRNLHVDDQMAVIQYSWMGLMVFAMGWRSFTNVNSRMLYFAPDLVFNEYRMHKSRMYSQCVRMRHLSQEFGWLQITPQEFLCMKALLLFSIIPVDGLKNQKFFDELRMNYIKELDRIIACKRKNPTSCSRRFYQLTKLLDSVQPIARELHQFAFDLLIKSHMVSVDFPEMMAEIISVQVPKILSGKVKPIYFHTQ
Kind of experiment: Degradation activity on androgen receptor in LNCaP cells (AR ELISA). The format is cell-based. To be noted: for Dmax: read-out: Max (maximum AR degradation rate). The procedure: The plate was incubated in a 37° C., 5% CO2 cell incubator for three days. […] A blank control cell well containing 0.5% DMSO was set up. The plate was incubated in a 37° C., 5% CO2 cell incubator for 24 hours. […] The lysate was well mixed by pipetting up and down and then centrifuged at 4000 rpm at 4° C. for 10 minutes. […] The plate was sealed and incubated in a 37° C. incubator for 1 hour. […] The plate was sealed and then incubated in a 37° C. incubator for 30 minutes.
(In an ELISA, binding on a coated surface is turned into a signal by an enzyme label.)

[1] abbreviates: 0.1 nM R1881, 24 hours, read-out: LNCaP DC50.
Setting [2] is: read-out: LNCaP DC50, 0.1 nM R1881, 24 hours.

In general, IC50 refers to the concentration that gives 50% inhibition. Low values mean greater potency, high ones weaker potency. Usually DC50 stands for the concentration at which degradation of the target reaches its halfway point. Turning to `C[C@H]1CC2(CCN(c3ccc(C(=O)N4CCC(CN5CCC(N6CCN(c7ccc(N8CCC(=O)NC8=O)cc7)CC6)CC5)CC4)cc3)CC2)CN1c1ccc(C#N)c(Cl)c1` [Example 9, (S)-2-Chloro-4-(8-(4-(4-((4-(4-(4-(2,4-dioxotetrahydropyrimidin-1(2H)-yl)phenyl)piperazin-1-yl)piperidin-1-yl)methyl)piperidine-1-carbonyl)phenyl)-3-methyl-2,8-diazaspiro[4.5]decan-2-yl)benzonitrile], in the experiment with LNCaP cells, half-maximal inhibition (IC50) was put at 69 nM and the Emax worked out at 59%. For the same molecule, at androgen receptor (AR) (setting [1]), the DC50 was found to be 12.9 nM. Further, on androgen receptor (AR) (0.1 nM R1881, 24 hours), the Dmax is 92%.

As for `C[C@H]1CC2(CCN(c3ccc(C(=O)N4CCC(N5CCN(c6cccc(NC7CCC(=O)NC7=O)c6)CC5)CC4)cc3)CC2)CN1c1ccc(C#N)c(Cl)c1` (stereo partly drawn) [Example 10, 2-Chloro-4-((3S)-8-(4-(4-(4-(3-((2,6-dioxopiperidin-3-yl)amino)phenyl)piperazin-1-yl)piperidine-1-carbonyl)phenyl)-3-methyl-2,8-diazaspiro[4.5]decan-2-yl)benzonitrile], in the experiment on LNCaP cells, the IC50 is 93 nM and the Emax worked out at 70%. Besides, at androgen receptor (AR) (setting [1]), the DC50 stood at 2.5 nM. Moreover, at androgen receptor (AR) (0.1 nM R1881, 24 hours), the Dmax came to 97%.

On to `C[C@H]1CC2(CCN(c3ccc(C(=O)N4CCC(CN5CCN(c6cccc(NC7CCC(=O)NC7=O)c6)CC5)CC4)nn3)CC2)CN1c1ccc(C#N)c(Cl)c1` (stereo partly drawn) [Example 13, 2-Chloro-4-((3S)-8-(6-(4-((4-(3-((2,6-dioxopiperidin-3-yl)amino)phenyl)piperazin-1-yl)methyl)piperidine-1-carbonyl)pyridazin-3-yl)-3-methyl-2,8-diazaspiro[4.5]decan-2-yl)benzonitrile], for which, in the experiment with LNCaP cells, the IC50 turned out to be 106 nM and the Emax came out at 56%. At androgen receptor (AR) (setting [1]), the DC50 stood at 0.5 nM. The Dmax at androgen receptor (AR) (0.1 nM R1881, 24 hours) was 96%.

As for `C[C@H]1CC2(CCN(c3ccc(C(=O)N4CC(CN5CCN(c6cccc(NC7CCC(=O)NC7=O)c6)CC5)C4)cc3)CC2)CN1c1ccc(C#N)c(Cl)c1` (stereo partly drawn) [Example 14, 2-Chloro-4-((3S)-8-(4-(3-((4-(3-((2,6-dioxopiperidin-3-yl)amino)phenyl)piperazin-1-yl)methyl)azetidine-1-carbonyl)phenyl)-3-methyl-2,8-diazaspiro[4.5]decan-2-yl)benzonitrile], in the experiment on LNCaP cells, the IC50 is 57 nM and the Emax was 69%. Further, the DC50 on androgen receptor (AR) (setting [1]) turned out to be 1.9 nM. For the same molecule, on androgen receptor (AR) (0.1 nM R1881, 24 hours), the Dmax was 96%.

For the molecule `C[C@H]1CC2(CCN(c3ccc(C(=O)N4CCC(CN5CCN(c6cccc(NC7CCC(=O)NC7=O)c6)CC5)CC4)c(F)c3)CC2)CN1c1ccc(C#N)c(Cl)c1` (stereo partly drawn) [Example 16, 2-Chloro-4-((3S)-8-(4-(4-((4-(3-((2,6-dioxopiperidin-3-yl)amino)phenyl)piperazin-1-yl)methyl)piperidine-1-carbonyl)-3-fluorophenyl)-3-methyl-2,8-diazaspiro[4.5]decan-2-yl)benzonitrile], in the experiment on LNCaP cells, 84 nM corresponded to half-maximal inhibition (IC50) and the Emax was found to be 70%. At androgen receptor (AR) (0.1 nM R1881, 24 hours), the Dmax stood at 97%. Also, the DC50 on androgen receptor (AR) (setting [2]) worked out at 3.9 nM.

Regarding `C[C@H]1CC2(CCN(c3cnc(C(=O)N4CCC(CN5CCN(c6cccc(NC7CCC(=O)NC7=O)c6)CC5)CC4)cn3)CC2)CN1c1ccc(C#N)c(Cl)c1` (stereo partly drawn) [Example 17, 2-Chloro-4-((3S)-8-(5-(4-((4-(3-((2,6-dioxopiperidin-3-yl)amino)phenyl)piperazin-1-yl)methyl)piperidine-1-carbonyl)pyrazin-2-yl)-3-methyl-2,8-diazaspiro[4.5]decan-2-yl)benzonitrile], in the experiment on LNCaP cells, the IC50 amounted to 112 nM and the Emax worked out at 74%. Besides, the Dmax at androgen receptor (AR) (0.1 nM R1881, 24 hours) was found to be 97%. In addition, at androgen receptor (AR) (setting [2]), the DC50 was 3 nM.

For `C[C@H]1CC2(CCN(c3ccc(C(=O)N4CCC(CN5CCN(c6cccc(NC7CCC(=O)NC7=O)c6)CC5)CC4)cn3)CC2)CN1c1ccc(C#N)c(Cl)c1` (stereo partly drawn) [Example 18, 2-Chloro-4-((3S)-8-(5-(4-((4-(3-((2,6-dioxopiperidin-3-yl)amino)phenyl)piperazin-1-yl)methyl)piperidine-1-carbonyl)pyridin-2-yl)-3-methyl-2,8-diazaspiro[4.5]decan-2-yl)benzonitrile], in the experiment on LNCaP cells, the IC50 amounted to 123 nM and the Emax was 72%. On androgen receptor (AR) (setting [1]), the DC50 was found to be 5.8 nM. For the same molecule, on androgen receptor (AR) (0.1 nM R1881, 24 hours), the Dmax was 96%.

Consider `C[C@H]1CC2(CCN(c3ccc(C(=O)N4CCC(CN5CCC(c6cccc(NC7CCC(=O)NC7=O)c6)CC5)CC4)cc3)CC2)CN1c1ccc(C#N)c(Cl)c1` (stereo partly drawn) [Example 19, 2-Chloro-4-((3S)-8-(4-(4-((4-(3-((2,6-dioxopiperidin-3-yl)amino)phenyl)piperidin-1-yl)methyl)piperidine-1-carbonyl)phenyl)-3-methyl-2,8-diazaspiro[4.5]decan-2-yl)benzonitrile], for which, in the experiment on LNCaP cells, half-maximal inhibition (IC50) was put at 60 nM and the Emax was determined as 68%. For the same molecule, at androgen receptor (AR) (setting [1]), the DC50 was found to be 1.8 nM. At androgen receptor (AR) (0.1 nM R1881, 24 hours), the Dmax was determined as 96%.

As to `C[C@H]1CC2(CCN(c3ccc(C(=O)N4CCC(CN5CCC(c6cccc(NC7CCC(=O)NC7=O)c6)CC5)CC4)nn3)CC2)CN1c1ccc(C#N)c(Cl)c1` (stereo partly drawn) [Example 20, 2-Chloro-4-((3S)-8-(6-(4-((4-(3-((2,6-dioxopiperidin-3-yl)amino)phenyl)piperidin-1-yl)methyl)piperidine-1-carbonyl)pyridazin-3-yl)-3-methyl-2,8-diazaspiro[4.5]decan-2-yl)benzonitrile], in the experiment on LNCaP cells, the IC50 is 15 nM and the Emax was found to be 59%. Besides, the DC50 at androgen receptor (AR) (setting [1]) amounted to 0.4 nM. Also, on androgen receptor (AR) (0.1 nM R1881, 24 hours), the Dmax was found to be 92%.

On to `C[C@H]1CC2(CCN(c3ccc(C(=O)N4CC(CN5CCC(c6cccc(NC7CCC(=O)NC7=O)c6)CC5)C4)nn3)CC2)CN1c1ccc(C#N)c(Cl)c1` (stereo partly drawn) [Example 21, 2-Chloro-4-((3S)-8-(6-(3-((4-(3-((2,6-dioxopiperidin-3-yl)amino)phenyl)piperidin-1-yl)methyl)azetidine-1-carbonyl)pyridazin-3-yl)-3-methyl-2,8-diazaspiro[4.5]decan-2-yl)benzonitrile], for which, in the experiment with LNCaP cells, the IC50 turned out to be 16 nM and the Emax worked out at 60%. In addition, the DC50 at androgen receptor (AR) (setting [1]) amounted to 0.5 nM. In addition, the Dmax on androgen receptor (AR) (0.1 nM R1881, 24 hours) was 94%.

Consider `C[C@H]1CC2(CCN(c3ccc(C(=O)N4CCC(CN5CCN(c6cc(NC7CCC(=O)NC7=O)ccn6)CC5)CC4)cc3)CC2)CN1c1ccc(C#N)c(Cl)c1` (stereo partly drawn) [Example 24, 2-Chloro-4-((3S)-8-(4-(4-((4-(4-((2,6-dioxopiperidin-3-yl)amino)pyridin-2-yl)piperazin-1-yl)methyl)piperidine-1-carbonyl)phenyl)-3-methyl-2,8-diazaspiro[4.5]decan-2-yl)benzonitrile], for which, in the experiment on LNCaP cells, the IC50 was determined as 659 nM and the Emax amounted to 54%. Also, the DC50 at androgen receptor (AR) (setting [1]) turned out to be 9.1 nM. Moreover, the Dmax at androgen receptor (AR) (0.1 nM R1881, 24 hours) was determined as 94%.

Turning to `C[C@H]1CC2(CCN(c3ccc(C(=O)N4CCC(CN5CCN(c6ccc(NC7CCC(=O)NC7=O)cc6)CC5)CC4)cc3)CC2)CN1c1ccc(C#N)c(Cl)c1` (stereo partly drawn) [Example 25, 2-Chloro-4-((3S)-8-(4-(4-((4-(4-((2,6-dioxopiperidin-3-yl)amino)phenyl)piperazin-1-yl)methyl)piperidine-1-carbonyl)phenyl)-3-methyl-2,8-diazaspiro[4.5]decan-2-yl)benzonitrile], in the experiment with LNCaP cells, the IC50 came to 24 nM and the Emax was determined as 60%. Further, the DC50 at androgen receptor (AR) (setting [1]) was 1.8 nM. Besides, on androgen receptor (AR) (0.1 nM R1881, 24 hours), the Dmax is 96%.

As for `C[C@H]1CC2(CCN(c3ccc(C(=O)N4CCC(CN5CCC(c6ccc(NC7CCC(=O)NC7=O)cc6)CC5)CC4)cc3)CC2)CN1c1ccc(C#N)c(Cl)c1` (stereo partly drawn) [Example 26, 2-Chloro-4-((3S)-8-(4-(4-((4-(4-((2,6-dioxopiperidin-3-yl)amino)phenyl)piperidin-1-yl)methyl)piperidine-1-carbonyl)phenyl)-3-methyl-2,8-diazaspiro[4.5]decan-2-yl)benzonitrile], in the experiment with LNCaP cells, half-maximal inhibition (IC50) required 7.8 nM and the Emax is 63%. Also, on androgen receptor (AR) (setting [1]), the DC50 was determined as 2.5 nM. The Dmax on androgen receptor (AR) (0.1 nM R1881, 24 hours) turned out to be 94%.
